Experimental data taken from paper PMC2680940 (Biochemistry, 2009).

Legend:
[1] = target: T1, 4-chlorobenzoate:CoA ligase (CBL) (Alcaligenes sp. AL3007, UniProt Q8GN86, D402A); test: continuous spectrophotometric assay at […] nm, initial velocity; type: biochemical; settings: 20 μM 4-CB, 10 mM CoA, 15 mM MgCl2, 50 mM K+HEPES pH 7.5, 25 °C
T1 sequence (Q8GN86 1-504 D402A): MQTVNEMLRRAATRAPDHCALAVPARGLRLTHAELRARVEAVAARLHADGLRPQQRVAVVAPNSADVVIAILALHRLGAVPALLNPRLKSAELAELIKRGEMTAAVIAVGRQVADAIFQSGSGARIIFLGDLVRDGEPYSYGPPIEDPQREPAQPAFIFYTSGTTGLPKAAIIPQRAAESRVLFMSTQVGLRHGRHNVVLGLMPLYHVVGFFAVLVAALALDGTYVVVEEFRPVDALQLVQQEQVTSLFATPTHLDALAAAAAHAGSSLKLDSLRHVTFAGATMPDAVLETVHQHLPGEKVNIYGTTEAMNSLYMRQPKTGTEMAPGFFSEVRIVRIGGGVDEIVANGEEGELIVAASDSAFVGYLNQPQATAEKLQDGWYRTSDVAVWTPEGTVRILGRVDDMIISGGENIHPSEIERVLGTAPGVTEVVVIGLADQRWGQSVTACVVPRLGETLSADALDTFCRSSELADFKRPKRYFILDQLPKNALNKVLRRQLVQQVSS

[2] = target: T2, 4-chlorobenzoate:CoA ligase (CBL) (Alcaligenes sp. AL3007, UniProt Q8GN86, D402P); test: as above; type: biochemical; settings: 20 μM 4-CB, 10 mM CoA, 15 mM MgCl2, 50 mM K+HEPES pH 7.5, 25 °C
T2 sequence (Q8GN86 1-504 D402P): T1 sequence (Q8GN86 1-504 D402A)

## Nc1ncnc2c1ncn2[C@@H]1O[C@H](COP(=O)(O)OP(=O)(O)OP(=O)(O)O)[C@@H](O)[C@H]1O [ATP, adenosine-5′-triphosphate]
[1]
  Km: 28.1 ± 0.9 µM
[2]
  Km: 13.1 ± 0.7 µM
